Test results from patent publication EP0178438A1, “Novel compounds” (BEECHAM GROUP PLC, priority 1984, dated 1986).

Test system: acid secretion
Test: perfused rat stomach preparation (anti-secretory response, pH of perfusate)
Type: in vivo, male Wistar rats
Conditions: bolus intravenous injection, maximal reduction in hydrogen-ion concentration as percentage of control, carbachol or histamine stimulated, urethane anaesthetized rat; for inhibition in vivo at 2.5 µmol/kg: Dose 2.5 μmol/kg; for inhibition in vivo at 1 µmol/kg: Dose 1 μmol/kg; for inhibition in vivo at 2 µmol/kg: Dose 2 μmol/kg
Procedure: The modified (1) perfused stomach preparation (2) ofthe urethane (25% solution) anaesthetized rat, maintained at 37 °C, allows the continuous measurement of pH during basal and stimulated acid secretion.
The lumen of the stomach of male Wistar rats (approximately 200 g bodyweight) was perfused, via a cannula designed to reduce the dead space of the stomach, with 5% glucose solution (37°C) at the rate of 3 ml/min. The perusate was forced over the surface of the secretory mucose only, the antrum being excluded. The effluent then passed over a microflow type glass pH electrode via a collecting funnel situated in the non-glandular forestomach.
The secretagogue carbachol or histamine was administered as a constant intravenous infusion to produce a stady rate of acid secretion. Test compounds were administered in solution as bolus intravenous injections and any effect on th pH of the perfusate noted. The perfusate Ph was recorded on a potentiometric recorder and anti-secretory responses were measure in terms of the maximal reduction in hydrogen-ion concentration expressed as a percentage of the 'control' concentrations.

SMILES: Cc1c(C[S+]([O-])c2nc3ccccc3[nH]2)ncnc1N(C)C (centres unmarked) [Example 27b, 2-[(5-Methyl-4-dimethylamino-pyrimidin-6-yl)methylsulphinyl]benzimidazole]
- inhibition in vivo at 2.5 µmol/kg: 92%

SMILES: Cc1cnc(C[S+]([O-])c2nc3ccccc3[nH]2)c(C)c1N(C)C (centres unmarked) [Example 2, 2-[ (4-Dimethylamino-3,5-dimethylpyrid-2-1)methylsulphinyl] benzimidazole]
- inhibition in vivo at 1 µmol/kg: 37%

SMILES: Cc1c(C[S+]([O-])c2nc3ccccc3[nH]2)ncnc1N1CCOCC1 (centres unmarked) [Example 26b, 2-[(5-Methyl-4-morpholino-pyrimidin-6-yl)methylsulphinyl]benzimidazole]
- inhibition in vivo at 2.5 µmol/kg: 84%

SMILES: Cc1cnc(C[S+]([O-])c2nc3ccccc3[nH]2)c(C)c1N1CCOCC1 (centres unmarked) [Example 8b, 2-[(3,5-dimethyl-4-morpholino-pyrid-2-yl)methylsulphinyl]benzimidazole]
- inhibition in vivo at 0.5 µmol/kg (Dose 0.5 μmol/kg): 72%

SMILES: Cc1c(N2CCOCC2)ccnc1C[S+]([O-])c1nc2ccccc2[nH]1 (centres unmarked) [Example 21b, 2-[(3-Methyl-4-morpholino-pyrid-2-yl)methylsulphinyl]-benzimidazole]
- inhibition in vivo at 2 µmol/kg: 87%

SMILES: Cc1c(C[S+]([O-])c2nc3ccccc3[nH]2)ncnc1N1CCCCC1 (centres unmarked) [Example 25b, 2-[(5-Methyl-4-(1-piperidinyl)-pyrimidin-6-yl)methylsulphinyl]benzimidazole]
- inhibition in vivo at 2 µmol/kg: 84%

SMILES: Cc1cnc(C[S+]([O-])c2nc3cc(Cl)ccc3[nH]2)c(C)c1N(C)C (centres unmarked) [Example 11b, 5-Chloro-2-[(4-dimethylamino-3,5-dimethypyrid-2-yl)-methylsulphinyl]benzimidazole]
- inhibition in vivo at 2 µmol/kg: 37%

SMILES: Cc1c(N(C)c2ccccc2)ccnc1C[S+]([O-])c1nc2ccccc2[nH]1 (centres unmarked) [Example 24b]
- inhibition in vivo at 2 µmol/kg: 100%

SMILES: Cc1cnc(C[S+]([O-])c2nc3ccc(Cl)cc3[nH]2)c(C)c1N1CCOCC1 (centres unmarked) [Example 14b, 5-Chloro-2-[(3,5-dimethyl-4-morpholinopyrid-2-yl)-methylsulphinyl]benzimidazole]
- inhibition in vivo at 1 µmol/kg: 60%

SMILES: Cc1cnc(C[S+]([O-])c2nc3ccccc3[nH]2)c(C)c1Nc1ccccc1 (centres unmarked) [Example 23b, 2-[(3,5-Dimethyl-4-N-anilino-pyrid-2-yl)methylsulphinyl]benzimidazole]
- inhibition in vivo at 5 µmol/kg (Dose 5 μmol/kg): 86%

SMILES: Cc1cnc(C[S+]([O-])c2nc3ccccc3[nH]2)c(C)c1N1CCCCC1 (centres unmarked) [Example 6b, 2-[(3,5-dimethyl-4-(piperid-1-yl)pyrid-2-yl)methylsulphinyl]benzimidazole]
- inhibition in vivo at 2 µmol/kg: 50%
